# From ChEMBL document CHEMBL5344418, “Recent developments in antimalarial activities of 4-aminoquinoline derivatives” (Eur J Med Chem, 2023)
# What was measured:
# Plasmodium falciparum [1] = assay: Antiplasmodial activity against chloroquine-sensitive Plasmodium falciparum 3D7 infected in human erythrocyte incubated for 72 hrs by SYBR green I staining based fluorescence assay; type: functional, organism-based; settings: 3D7, Erythrocyte
# Plasmodium falciparum [2] = assay: Antiplasmodial activity against Plasmodium falciparum Dd2 infected in human Erythrocyte measured after 72 hrs by SYBR green fluorescence dye based microplate reader analysis; type: functional, organism-based
# Plasmodium falciparum [3] = assay: Antiplasmodial activity against Plasmodium falciparum K1 infected in human Erythrocyte measured after 72 hrs by SYBR green fluorescence dye based microplate reader analysis; type: functional, organism-based
# Plasmodium falciparum [4] = assay: Antiplasmodial activity against Plasmodium falciparum 3D7 infected in human erythrocytes assessed as growth inhibition after 72 hrs by SYBR Gren-I fluorescent dye based method; type: functional, organism-based; settings: 3D7, 72 h
# Plasmodium falciparum [5] = assay: Antimalarial activity against drug sensitive Plasmodium falciparum NF54 assessed as inhibition of parasite growth; type: functional, organism-based
# Plasmodium falciparum [6] = assay: Antimalarial activity against Plasmodium falciparum K1 assessed as inhibition of parasitic growth; type: functional, organism-based
# HepG2 [7] = assay: Cytotoxicity against human HepG2 cells assessed as cell growth inhibition measured after 72 hrs by MTT assay; type: functional
# Plasmodium falciparum [8] = assay: Antimalarial activity against Plasmodium falciparum 3D7 assessed as inhibition of parasite growth incubated for 96 hrs; type: functional, organism-based; settings: 3D7, 96 h
# Plasmodium falciparum [9] = assay: Antimalarial activity against chloroquine-resistant Plasmodium falciparum Dd2 assessed as inhibition of parasite growth; type: functional, organism-based
# Plasmodium falciparum [10] = assay: Antimalarial activity against chloroquine resistant Plasmodium falciparum FcB1/Colombia assessed as inhibition of parasite growth incubated for 24 hrs by liquid scintillation spectrometer analysis; type: functional, organism-based
# Plasmodium falciparum [11] = assay: Antimalarial activity against Plasmodium falciparum D6 assessed as reduction in parasite growth incubated for 48 hrs by LDH assay; type: functional, organism-based; settings: D6, 48 h
# Plasmodium falciparum [12] = assay: Antimalarial activity against Plasmodium falciparum W2 assessed as reduction in parasite growth incubated for 48 hrs by LDH assay; type: functional, organism-based; settings: W2, 48 h
# [13] = Cytotoxicity against African green monkey Vero cells; type: toxicity, cell-based; settings: chlorocebus sabaeus
# Plasmodium falciparum [14] = assay: Antimalarial activity against chloroquine-sensitive Plasmodium falciparum 3D7 assessed as reduction in parasite growth incubated for 48 hrs by SYBR green assay; type: functional, organism-based; settings: 3D7, 48 h
# Plasmodium falciparum [15] = assay: Antimalarial activity against multi-drug resistant Plasmodium falciparum K1 assessed as reduction in parasite growth incubated for 48 hrs by SYBR green assay; type: functional, organism-based; settings: K1, 48 h
# HepG2 [16] = assay: Cytotoxicity against human HepG2 cells assessed as reduction in cell viability incubated for 24 hrs by MTT assay; type: functional
# Plasmodium falciparum [17] = assay: Antimalarial activity against Plasmodium falciparum 3D7 assessed as inhibition of parasite growth; type: functional, organism-based
# Plasmodium falciparum [18] = assay: Antimalarial activity against CQ-resistant Plasmodium falciparum RKL9; type: functional, organism-based
# Plasmodium falciparum [19] = assay: Antimalarial activity against Plasmodium falciparum assessed as parasitic growth inhibition; type: functional, organism-based
# Plasmodium falciparum [20] = assay: Antimalarial activity against chloroquine-sensitive Plasmodium falciparum 3D7 by SYBR green I assay; type: functional, organism-based
# Plasmodium falciparum [21] = assay: Antimalarial activity against chloroquine-resistant Plasmodium falciparum Dd2 assessed as reduction in parasitic growth incubated for 72 hrs by Giemsa-staining based microscopic analysis; type: functional, organism-based; settings: Dd2, 72 h
# Plasmodium berghei [22] = assay: Antimalarial activity against Plasmodium berghei ANKA; type: functional, organism-based
# Plasmodium berghei [23] = assay: Antimalarial activity against liver stage Plasmodium berghei; type: functional, organism-based
# Plasmodium falciparum [24] = assay: Antiplasmodial activity against chloroquine-sensitive Plasmodium falciparum 3D7 assessed as parasitic growth inhibition incubated for 72 hrs by SYBR Green staining based fluorescence analysis; type: functional, organism-based; settings: 3D7, 72 h
# Plasmodium falciparum [25] = assay: Antiplasmodial activity against chloroquine-resistant Plasmodium falciparum W2 assessed as parasitic growth inhibition incubated for 72 hrs by SYBR Green staining based fluorescence analysis; type: functional, organism-based; settings: W2, 72 h
# [26] = Cytotoxicity against African green monkey Vero cells assessed as reduction in cell viability measured after 24 hrs; type: toxicity, cell-based; settings: African green monkey (Chlorocebus sabaeus)
# Plasmodium falciparum [27] = assay: Antimalarial activity against chloroquine-sensitive Plasmodium falciparum NF54 assessed as reduction in cell growth; type: functional, organism-based
# Plasmodium falciparum [28] = assay: Antimalarial activity against chloroquine-resistant Plasmodium falciparum K1 assessed as reduction in cell growth; type: functional, organism-based
smiles,measurement,setting,value
C[C@H]1[C@H](OC(=O)CCC(=O)OCCNc2ccnc3cc(Cl)ccc23)O[C@@H]2O[C@@]3(C)CC[C@H]4[C@H](C)CC[C@@H]1[C@@]24OO3,EC50,Plasmodium falciparum [1],0.0045 µM
same,EC50,Plasmodium falciparum [2],0.0023 µM
same,EC50,Plasmodium falciparum [3],0.0017 µM
CC1(C)[C@@H]2CC=C(CC(=O)Nc3ccnc4cc(Cl)ccc34)[C@H]1C2,EC50,Plasmodium falciparum [4],17.1 µM
same,EC50,Plasmodium falciparum [5],21.4 µM
same,EC50,Plasmodium falciparum [6],7.84 µM
same,CC50,HepG2 [7],14.3 µM
O=C(O)CCCCCCCCCCCNc1ccnc2cc(Cl)ccc12,IC50,Plasmodium falciparum [8],0.031 µM
same,IC50,Plasmodium falciparum [9],4 µM
CCOP(=O)(CCCN(O)C(=O)CCC(=O)N1CCN(c2ccnc3cc(Cl)ccc23)CC1)OCC,IC50,Plasmodium falciparum [10],2.7 µM
N=C(N=C(N)N)SCCCCNc1cc(C(F)(F)F)nc2c(C(F)(F)F)cccc12,IC50,Plasmodium falciparum [11],> 8.93 µM
same,IC50,Plasmodium falciparum [12],> 8.93 µM
same,CC50,[13],> 8.93 µM
C#CCNc1ccnc2cc(Cl)ccc12,IC50,Plasmodium falciparum [14],0.377 µM
same,IC50,Plasmodium falciparum [15],0.405 µM
same,MLD50,HepG2 [16],407 µM
O=[N+]([O-])c1ccc(/C=N/Nc2ccnc3cc(Cl)ccc23)cc1,IC50,Plasmodium falciparum [17],0.009 µM
same,IC50,Plasmodium falciparum [18],0.009 µM
NCCNc1ccnc2cc(Cl)ccc12,IC50,Plasmodium falciparum [14],0.273 µM
same,IC50,Plasmodium falciparum [15],0.218 µM
same,MLD50,HepG2 [16],179 µM
C#CCCCN(CCNc1ccnc2cc(Cl)ccc12)C(=O)CCC(=O)O[C@@H]1O[C@@H]2O[C@@]3(C)CC[C@H]4[C@H](C)CC[C@@H]([C@H]1C)[C@@]24OO3,EC50,Plasmodium falciparum [1],0.0035 µM
same,EC50,Plasmodium falciparum [2],0.0016 µM
same,EC50,Plasmodium falciparum [3],0.0013 µM
Clc1ccc2c(Nc3ccncc3)ccnc2c1,IC50,Plasmodium falciparum [19],4.23 µM
CCCCCCCC(=O)NCCCC(C)Nc1ccnc2cc(Cl)ccc12 (stereo not drawn),IC50,Plasmodium falciparum [20],0.051 µM
same,IC50,Plasmodium falciparum [21],109 µM
CCCCCCCCCCCC(=O)NCCCC(C)Nc1ccnc2cc(Cl)ccc12 (stereo not drawn),IC50,Plasmodium falciparum [20],0.045 µM
same,IC50,Plasmodium falciparum [21],160 µM
C[C@H](Cc1ccccc1)Nc1ccnc2cc(Cl)ccc12,IC50,Plasmodium berghei [22],0.49 µM
CC(C)Cc1ccc(C(C)C(=O)NCCNc2ccnc3cc(Cl)ccc23)cc1 (stereo not drawn),IC50,Plasmodium falciparum [8],0.125 µM
same,IC50,Plasmodium falciparum [9],0.201 µM
O=C(O)c1cn(C2CC2)c2cc(N3CCNCC3)c(F)cc2c1=O [CIPROFLOXACIN],IC50,Plasmodium berghei [23],0.06 µM
OB1OCc2ccc(OCc3cn(CCN4CCN(c5ccnc6cc(Cl)ccc56)CC4)nn3)cc21,IC50,Plasmodium falciparum [24],5.31 µM
same,IC50,Plasmodium falciparum [25],4.86 µM
same,IC50 at 24 h,[26],82.4 µM
C#Cc1ccc(-c2cn(CCNc3ccnc4cc(Cl)ccc34)nn2)c(F)c1,IC50,Plasmodium falciparum [27],0.19 µM
same,IC50,Plasmodium falciparum [28],0.21 µM
Clc1ccc2c(Nc3cccnc3)ccnc2c1,IC50,Plasmodium falciparum [19],4.35 µM
OB1OCc2ccc(OCc3cn(CCNc4ccnc5cc(Cl)ccc45)nn3)cc21,IC50,Plasmodium falciparum [24],4.15 µM
same,IC50,Plasmodium falciparum [25],3.78 µM
same,IC50 at 24 h,[26],> 100 µM
N=C(N=C(N)N)SCCNc1cc(C(F)(F)F)nc2c(C(F)(F)F)cccc12,IC50,Plasmodium falciparum [11],7.55 µM
same,IC50,Plasmodium falciparum [12],8.04 µM
same,CC50,[13],> 9.42 µM
O=C(O)CNc1ccnc2cc(Cl)ccc12,IC50,Plasmodium falciparum [14],> 10 µM
same,IC50,Plasmodium falciparum [15],> 10 µM
same,MLD50,HepG2 [16],>1000 µM
N=C(N=C(N)N)SCCCNc1cc(C(F)(F)F)nc2c(C(F)(F)F)cccc12,IC50,Plasmodium falciparum [11],5.54 µM
same,IC50,Plasmodium falciparum [12],7.21 µM
same,CC50,[13],> 9.17 µM
Clc1ccc2c(NNc3ccncc3)ccnc2c1,IC50,Plasmodium falciparum [19],3.75 µM
Clc1ccc2c(NNc3cccnc3)ccnc2c1,IC50,Plasmodium falciparum [19],2.21 µM
O=C(O)C(Cc1c[nH]c2ccccc12)Nc1ccnc2cc(Cl)ccc12 (stereo not drawn),IC50,Plasmodium falciparum [8],8 µM
same,IC50,Plasmodium falciparum [9],5 µM
COc1ccc2c(c1)C[C@H](Nc1ccnc3cc(Cl)ccc13)C2,IC50,Plasmodium berghei [22],0.59 µM
C[C@H]1[C@H](OC(=O)CCC(=O)O)O[C@@H]2O[C@@]3(C)CC[C@H]4[C@H](C)CC[C@@H]1[C@@]24OO3 [ARTESUNATE],IC50,Plasmodium falciparum [27],< 5.2 µM
CCN(CC)CC#CCNc1ccnc2cc(Cl)ccc12,IC50,Plasmodium falciparum [14],0.046 µM
same,IC50,Plasmodium falciparum [15],0.05 µM
same,MLD50,HepG2 [16],1481 µM
CCOP(=O)(CCCN(O)C(=O)CCC(=O)NCCNc1ccnc2cc(Cl)ccc12)OCC,IC50,Plasmodium falciparum [10],4.2 µM
C#Cc1ccc(-c2cn(CCNc3ccnc4cc(Cl)ccc34)nn2)cc1F,IC50,Plasmodium falciparum [27],0.15 µM
OB1OCc2ccc(OCc3cn(CCCNc4ccnc5cc(Cl)ccc45)nn3)cc21,IC50,Plasmodium falciparum [24],4.13 µM
same,IC50,Plasmodium falciparum [25],3.91 µM
same,IC50 at 24 h,[26],> 100 µM
N=C(N=C(N)N)SCCCNc1ccnc2cc(Cl)ccc12,IC50,Plasmodium falciparum [12],2.13 µM
same,CC50,[13],> 11.4 µM
COc1cc(/C=N/Nc2ccnc3cc(Cl)ccc23)ccc1O,IC50,Plasmodium falciparum [17],0.009 µM
same,IC50,Plasmodium falciparum [18],0.009 µM
C#Cc1ccc(-c2cn(CCNc3ccnc4cc(Cl)ccc34)nn2)cc1,IC50,Plasmodium falciparum [28],0.18 µM
CCCC(=O)NCCCC(C)Nc1ccnc2cc(Cl)ccc12 (stereo not drawn),IC50,Plasmodium falciparum [20],0.627 µM
same,IC50,Plasmodium falciparum [21],588 µM
CC1(C)[C@@H]2CC=C(CC(=O)Nc3ccnc4ccccc34)[C@H]1C2,EC50,Plasmodium falciparum [4],26.4 µM
same,EC50,Plasmodium falciparum [5],23.4 µM
same,EC50,Plasmodium falciparum [6],13.9 µM
same,CC50,HepG2 [7],3.89 µM
C[C@H]1[C@H](OC(=O)CCC(=O)NCCNc2ccnc3cc(Cl)ccc23)O[C@@H]2O[C@@]3(C)CC[C@H]4[C@H](C)CC[C@@H]1[C@@]24OO3,EC50,Plasmodium falciparum [1],0.0027 µM
same,EC50,Plasmodium falciparum [2],0.001 µM
